{"source": "paper PMC7532676", "about": "“Salidroside can target both P4HB-mediated inflammation and melanogenesis of the skin” (Theranostics, 2020)", "biological_target": "prolyl 4-hydroxylase beta polypeptide (P4HB) (Homo sapiens, UniProt P07237)", "sequence (P07237 18-508)": "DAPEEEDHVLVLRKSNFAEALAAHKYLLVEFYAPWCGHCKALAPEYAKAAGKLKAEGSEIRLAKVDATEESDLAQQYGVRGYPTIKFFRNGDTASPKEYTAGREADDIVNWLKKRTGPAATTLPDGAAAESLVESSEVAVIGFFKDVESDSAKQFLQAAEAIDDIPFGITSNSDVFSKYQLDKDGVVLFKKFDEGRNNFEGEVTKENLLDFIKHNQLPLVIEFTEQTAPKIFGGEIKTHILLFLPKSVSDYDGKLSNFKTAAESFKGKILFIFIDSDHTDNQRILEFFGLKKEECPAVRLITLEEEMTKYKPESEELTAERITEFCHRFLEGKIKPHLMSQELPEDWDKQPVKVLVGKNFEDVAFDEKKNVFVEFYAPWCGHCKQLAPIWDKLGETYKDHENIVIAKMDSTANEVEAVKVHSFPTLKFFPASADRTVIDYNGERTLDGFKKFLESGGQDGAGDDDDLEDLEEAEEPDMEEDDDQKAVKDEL", "test": "surface plasmon resonance (Biacore […])", "assay_type": "binding", "data": [{"smiles": "OC[C@H]1O[C@@H](OCCc2ccc(O)cc2)[C@H](O)[C@@H](O)[C@@H]1O", "note": "[SAL, Salidroside]", "values": [{"measurement": "Kd", "value": 13.8, "unit": "µM"}]}]}
